Experimental data reported in US12564193B2, “Isoxazoline-substituted benzamide derivative, and preparation method therefor and use thereof” (SHANDONG UNITED PESTICIDE INDUSTRY CO., LTD., priority 2020, dated 2026).
Like-named read-outs stand apart in the source and are kept apart here.

Assays:
Assay type in all cases: in vivo
Spodoptera litura = assay: Insecticidal activity, spray on pre-infested radish plants: Spodoptera litura; settings: 144 h, read-out: fatality rate on Spodoptera litura
Description: (§1) For determination of insecticidal activity, the test method was as follows: a test solution with a desired concentration was prepared by dissolving a test compound sample in a suitable solvent (the kind of solvent was such as acetone, methanol, DMSO, etc., and was selected according to its dissolving ability for the sample). The test cell was composed of a small open container with 12-15 day old radish plants inside. The plants were pre-infested by placing 30-40 pests located on one leaf cut from the cultivated plant on one leaf of the test plant (leaf cutting method). As the leaves dehydrated, the pests moved on the test plants. After the pre-infesting, the soil of the test cells was covered with a layer of sand.
(§2) The test method was as follows: the test was repeated for three times, and after spraying the formulated test compound, each test unit was allowed to dry for 1 hour, and then a black mesh cover was placed at the top. The test units were kept in a growth chamber at 25° C. and 70% relative humidity for 6 days. The mortality (fatality rate) of the insects was then visually assessed for each test unit, and the fatality rate was calculated as follows: […]

Chilo suppressalis = assay: Insecticidal activity, spray on pre-infested radish plants: Chilo suppressalis; settings: Chilo suppressalis, 144 h, read-out: fatality rate on Chilo suppressalis
Description: as §1, §2

Plutella xylostella = assay: Insecticidal activity, spray on pre-infested radish plants: Plutella xylostella; settings: Plutella xylostella, 144 h, read-out: fatality rate on Plutella xylostella
Description: as §1, §2

Cnaphalocrocis medinalis = assay: Insecticidal activity, spray on pre-infested radish plants: Cnaphalocrocis medinalis; settings: 144 h, read-out: fatality rate on Cnaphalocrocis medinalis
Description: as §1, §2

[1] = test system: Frankliniella occidentalis; assay: Insecticidal activity, spray on pre-infested radish plants: Frankliniella occidentalis; settings: Frankliniella occidentalis, 144 h, read-out: fatality rate on Frankliniella occidentalis
Description: as §1
The test method was as follows: the test was repeated for three times, and after spraying the formulated test compound, each test unit was allowed to dry for 1 hour, and then a black mesh cover was placed at the top. The test units were kept in a growth chamber at 25° C. and 70% relative humidity for 6 days. The mortality (fatality rate) of the insects was then visually assessed for each test unit, and the fatality rate was calculated as follows:
[formula] (1) Test Results for the Control of Frankliniella occidentalis by Exemplary Example Compounds

Tetranychus cinnabarinus = assay: Acaricidal activity, slide immersion of female adult mites: Tetranychus cinnabarinus; settings: read-out: fatality rate on Tetranychus cinnabarinus
Description: The test method was as follows: a test solution with a desired concentration was prepared by dissolving a test compound sample in a suitable solvent (the kind of solvent was such as acetone, methanol, DMSO, etc., and was selected according to its dissolving ability for the sample). A double-sided adhesive tape was cut into 2-3 cm long pieces, the pieces were attached to one end of a microscope slide, paper pieces on the adhesive tape were removed using tweezers, female adult mites which were consistent in size, bright in body color and lively in action were selected using a zero-size brush pen, the backs of the female adult mites were adhered to the double-sided adhesive tape (note: the adhesion should not cover mite feet, mite whiskers and mouthparts), with 4 rows of mites adhered to each piece and 10 heads of the mites adhered to each row.
One end of the glass slide with the mites was immersed into a drug liquid, with slightly shaking for 5 seconds, and then the slide was taken out. The excess drug liquid around the mite body and is surroundings is quickly sucked off using absorbent paper. The slide was placed in the biochemical incubator described above, and the results were checked by using binoculars after 24 hours. The mites were slightly touched by using a brush pen, the mites with immobility in feet were considered to be dead, and the fatality rate was calculated. The fatality rate was calculated as follows: […]

Pieris rapae = assay: Insecticidal activity, spray on pre-infested radish plants: Pieris rapae; settings: 144 h, read-out: fatality rate on Pieris rapae
Description: as §1, §2

Mythimna separata = assay: Insecticidal activity, spray on pre-infested radish plants: Mythimna separata; settings: Mythimna separata, 144 h, read-out: fatality rate on Mythimna separata
Description: as §1, §2

Cc1cc(C2=NOC(c3cc(Cl)c(F)c(Cl)c3)(C(F)(F)F)C2)ccc1C(=O)NCCc1ncc(C(F)(F)F)cc1Cl (stereo not drawn) [Compound 19]
> 80%: pest or weed control at 0.1 ppm (Spodoptera litura) | pest or weed control at 1 ppm (Spodoptera litura) | pest or weed control at 10 ppm (Spodoptera litura) | pest or weed control at 0.1 ppm (Chilo suppressalis) | pest or weed control at 1 ppm (Chilo suppressalis) | pest or weed control at 10 ppm (Chilo suppressalis) | pest or weed control at 0.1 ppm (Plutella xylostella) | pest or weed control at 1 ppm (Plutella xylostella) | pest or weed control at 10 ppm (Plutella xylostella) | pest or weed control at 0.1 ppm (Cnaphalocrocis medinalis) | pest or weed control at 1 ppm (Cnaphalocrocis medinalis) | pest or weed control at 10 ppm (Cnaphalocrocis medinalis) | pest or weed control at 1 ppm [1] | pest or weed control at 10 ppm [1] | pest or weed control at 25 ppm [1] | pest or weed control at 1 ppm (Tetranychus cinnabarinus; 24 h) | pest or weed control at 10 ppm (Tetranychus cinnabarinus; 24 h) | pest or weed control at 25 ppm (Tetranychus cinnabarinus; 24 h) | pest or weed control at 0.1 ppm (Pieris rapae) | pest or weed control at 1 ppm (Pieris rapae) | pest or weed control at 10 ppm (Pieris rapae) | pest or weed control at 0.1 ppm (Mythimna separata) | pest or weed control at 1 ppm (Mythimna separata) | pest or weed control at 10 ppm (Mythimna separata)

Cc1cc(C2=NOC(c3cc(F)c(F)c(F)c3)(C(F)(F)F)C2)ccc1C(=O)NCc1ncc(Cl)cc1Cl (stereo not drawn) [Compound 12]
> 80%: pest or weed control at 0.1 ppm (Spodoptera litura; dose 0.1 ppm, spray, 6 days) | pest or weed control at 1 ppm (Spodoptera litura; dose 1 ppm, spray, 6 days) | pest or weed control at 10 ppm (Spodoptera litura; dose 10 ppm, spray, 6 days) | pest or weed control at 0.1 ppm (Chilo suppressalis; dose 0.1 ppm, spray, 6 days) | pest or weed control at 1 ppm (Chilo suppressalis; dose 1 ppm, spray, 6 days) | pest or weed control at 10 ppm (Chilo suppressalis; dose 10 ppm, spray, 6 days) | pest or weed control at 0.1 ppm (Plutella xylostella; dose 0.1 ppm, spray, 6 days) | pest or weed control at 1 ppm (Plutella xylostella; dose 1 ppm, spray, 6 days) | pest or weed control at 10 ppm (Plutella xylostella; dose 10 ppm, spray, 6 days) | pest or weed control at 0.1 ppm (Cnaphalocrocis medinalis; dose 0.1 ppm, spray, 6 days) | pest or weed control at 1 ppm (Cnaphalocrocis medinalis; dose 1 ppm, spray, 6 days) | pest or weed control at 10 ppm (Cnaphalocrocis medinalis; dose 10 ppm, spray, 6 days) | pest or weed control at 1 ppm ([1]; dose 1 ppm, spray, 6 days) | pest or weed control at 10 ppm ([1]; dose 10 ppm, spray, 6 days) | pest or weed control at 25 ppm ([1]; dose 25 ppm, spray, 6 days) | pest or weed control at 1 ppm (Tetranychus cinnabarinus; dose 1 ppm, immersion 5 seconds, checked after 24 hours) | pest or weed control at 10 ppm (Tetranychus cinnabarinus; dose 10 ppm, immersion 5 seconds, checked after 24 hours) | pest or weed control at 25 ppm (Tetranychus cinnabarinus; dose 25 ppm, immersion 5 seconds, checked after 24 hours) | pest or weed control at 0.1 ppm (Pieris rapae; dose 0.1 ppm, spray, 6 days) | pest or weed control at 1 ppm (Pieris rapae; dose 1 ppm, spray, 6 days) | pest or weed control at 10 ppm (Pieris rapae; dose 10 ppm, spray, 6 days) | pest or weed control at 0.1 ppm (Mythimna separata; dose 0.1 ppm, spray, 6 days) | pest or weed control at 1 ppm (Mythimna separata; dose 1 ppm, spray, 6 days) | pest or weed control at 10 ppm (Mythimna separata; dose 10 ppm, spray, 6 days)

Cc1cc(C2=NOC(c3cc(Cl)c(F)c(Cl)c3)(C(F)(F)F)C2)ccc1C(=O)NCc1ncc(Cl)cc1Cl (stereo not drawn) [Compound 11]
> 80%: pest or weed control at 0.1 ppm (Spodoptera litura) | pest or weed control at 1 ppm (Spodoptera litura) | pest or weed control at 10 ppm (Spodoptera litura) | pest or weed control at 0.1 ppm (Chilo suppressalis) | pest or weed control at 1 ppm (Chilo suppressalis) | pest or weed control at 10 ppm (Chilo suppressalis) | pest or weed control at 0.1 ppm (Plutella xylostella) | pest or weed control at 1 ppm (Plutella xylostella) | pest or weed control at 10 ppm (Plutella xylostella) | pest or weed control at 0.1 ppm (Cnaphalocrocis medinalis) | pest or weed control at 1 ppm (Cnaphalocrocis medinalis) | pest or weed control at 10 ppm (Cnaphalocrocis medinalis) | pest or weed control at 1 ppm [1] | pest or weed control at 10 ppm [1] | pest or weed control at 25 ppm [1] | pest or weed control at 1 ppm (Tetranychus cinnabarinus; 24 h) | pest or weed control at 10 ppm (Tetranychus cinnabarinus; 24 h) | pest or weed control at 25 ppm (Tetranychus cinnabarinus; 24 h) | pest or weed control at 0.1 ppm (Pieris rapae) | pest or weed control at 1 ppm (Pieris rapae) | pest or weed control at 10 ppm (Pieris rapae) | pest or weed control at 0.1 ppm (Mythimna separata) | pest or weed control at 1 ppm (Mythimna separata) | pest or weed control at 10 ppm (Mythimna separata)

Cc1cc(C2=NOC(c3cc(Cl)c(F)c(Cl)c3)(C(F)(F)F)C2)ccc1C(=O)NCc1cnc(Cl)cc1Cl (stereo not drawn) [Compound 7]
> 80%: pest or weed control at 0.1 ppm (Spodoptera litura) | pest or weed control at 1 ppm (Spodoptera litura) | pest or weed control at 10 ppm (Spodoptera litura) | pest or weed control at 0.1 ppm (Chilo suppressalis) | pest or weed control at 1 ppm (Chilo suppressalis) | pest or weed control at 10 ppm (Chilo suppressalis) | pest or weed control at 0.1 ppm (Plutella xylostella) | pest or weed control at 1 ppm (Plutella xylostella) | pest or weed control at 10 ppm (Plutella xylostella) | pest or weed control at 0.1 ppm (Cnaphalocrocis medinalis) | pest or weed control at 1 ppm (Cnaphalocrocis medinalis) | pest or weed control at 10 ppm (Cnaphalocrocis medinalis) | pest or weed control at 1 ppm [1] | pest or weed control at 10 ppm [1] | pest or weed control at 25 ppm [1] | pest or weed control at 1 ppm (Tetranychus cinnabarinus; 24 h) | pest or weed control at 10 ppm (Tetranychus cinnabarinus; 24 h) | pest or weed control at 25 ppm (Tetranychus cinnabarinus; 24 h) | pest or weed control at 0.1 ppm (Pieris rapae) | pest or weed control at 1 ppm (Pieris rapae) | pest or weed control at 10 ppm (Pieris rapae) | pest or weed control at 0.1 ppm (Mythimna separata) | pest or weed control at 1 ppm (Mythimna separata) | pest or weed control at 10 ppm (Mythimna separata)
